According to the Kinase Knowledgebase extract (Sharma et al. 2016):

These molecules were tested against CDK2 (human) (UniProt P24941) (assay: Enzyme Assay). Details: concentration not given here.

| inhibition [%] | Structure (SMILES) |
| --- | --- |
| 18 | Nc1nc(NC2CCN(C(=O)c3cnccc3C(F)(F)F)CC2)sc1C(=O)c1c(F)cccc1F |
| -15 | CC(Oc1ccccc1)C(=O)N1CCC(Nc2nc(N)c(C(=O)c3c(F)cccc3F)s2)CC1 (centres undefined) |
| 45 | CS(=O)(=O)CC(=O)N1CCC(Nc2nc(N)c(C(=O)c3c(F)cccc3F)s2)CC1 |
| 0 | Nc1nc(NC2CCN(C(=O)c3ccc(C(F)(F)F)cc3C(F)(F)F)CC2)sc1C(=O)c1c(F)cccc1F |
| 21 | C[C@@H](C(=O)N1CCC(Nc2nc(N)c(C(=O)c3c(F)cccc3F)s2)CC1)c1ccccc1 |
| -20 | Nc1nc(NC2CCN(C(=O)CC3CCCC3)CC2)sc1C(=O)c1c(F)cccc1F |
| 39 | COc1c(C)cc(C(=O)N2CCC(Nc3nc(N)c(C(=O)c4c(F)cccc4F)s3)CC2)cc1C |
| 12 | Nc1nc(NC2CCN(C(=O)c3nc4ccccc4nc3O)CC2)sc1C(=O)c1c(F)cccc1F |
| -5 | Nc1nc(NC2CCN(C(=O)CC3CCCCC3)CC2)sc1C(=O)c1c(F)cccc1F |
| 63 | CCSCC(=O)N1CCC(Nc2nc(N)c(C(=O)c3c(F)cccc3F)s2)CC1 |
| 39 | Nc1nc(NC2CCN(C(=O)c3ccc(C=O)o3)CC2)sc1C(=O)c1c(F)cccc1F |
| 41 | CC[C@@H](C(=O)N1CCC(Nc2nc(N)c(C(=O)c3c(F)cccc3F)s2)CC1)c1ccccc1 |
| -2 | CCCCC(C)C(=O)N1CCC(Nc2nc(N)c(C(=O)c3c(F)cccc3F)s2)CC1 (centres undefined) |
| 16 | CCCCC(O)C(=O)N1CCC(Nc2nc(N)c(C(=O)c3c(F)cccc3F)s2)CC1 (centres undefined) |
| 85 | CC(C)c1ccc(CC(=O)N2CCC(Nc3nc(N)c(C(=O)c4c(F)cccc4F)s3)CC2)cc1 |
| 48 | CC(C(=O)N1CCC(Nc2nc(N)c(C(=O)c3c(F)cccc3F)s2)CC1)c1ccc(Cl)cc1 (centres undefined) |
| 31 | Cc1ccoc1C(=O)N1CCC(Nc2nc(N)c(C(=O)c3c(F)cccc3F)s2)CC1 |
| 64 | Nc1nc(NC2CCN(C(=O)c3cc4ccccc4o3)CC2)sc1C(=O)c1c(F)cccc1F |
| 40 | Nc1nc(NC2CCN(C(=O)CCc3cccc(O)c3)CC2)sc1C(=O)c1c(F)cccc1F |
| -11 | Cc1ccccc1C(=O)N1CCC(Nc2nc(N)c(C(=O)c3c(F)cccc3F)s2)CC1 |
| -13 | CCOC(=O)CC(=O)N1CCC(Nc2nc(N)c(C(=O)c3c(F)cccc3F)s2)CC1 |
| 48 | Cc1ccccc1CCC(=O)N1CCC(Nc2nc(N)c(C(=O)c3c(F)cccc3F)s2)CC1 |

| inhibition [%] | Structure (SMILES) |
| --- | --- |
| -5 | CC1(C(=O)N2CCC(Nc3nc(N)c(C(=O)c4c(F)cccc4F)s3)CC2)CCCCC1 |
| 57 | Nc1nc(NC2CCN(C(=O)CNc3ccccc3)CC2)sc1C(=O)c1c(F)cccc1F |
| 69 | CC(=O)Nc1cccc(C(=O)N2CCC(Nc3nc(N)c(C(=O)c4c(F)cccc4F)s3)CC2)c1 |
| 51 | Nc1nc(NC2CCN(C(=O)C(O)c3ccccc3Cl)CC2)sc1C(=O)c1c(F)cccc1F (centres undefined) |
| 38 | Cc1c(C(=O)N2CCC(Nc3nc(N)c(C(=O)c4c(F)cccc4F)s3)CC2)oc2ccccc12 |
| 17 | CC(CO)(CO)C(=O)N1CCC(Nc2nc(N)c(C(=O)c3c(F)cccc3F)s2)CC1 |
| -8 | Nc1nc(NC2CCN(S(=O)(=O)c3c(F)cccc3F)CC2)sc1C(=O)c1c(F)cccc1F |
| -9 | C/C=C/C(=O)N1CCC(Nc2nc(N)c(C(=O)c3c(F)cccc3F)s2)CC1 |
| 58 | Nc1nc(NC2CCN(C(=O)Cc3sc(O)nc3O)CC2)sc1C(=O)c1c(F)cccc1F |
| -32 | Nc1nc(NC2CCN(S(=O)(=O)c3cccc4cccnc34)CC2)sc1C(=O)c1c(F)cccc1F |
| -28 | CCCCOc1ccc(C(C)(C)CC(C)(C)C)cc1S(=O)(=O)N1CCC(Nc2nc(N)c(C(=O)c3c(F)cccc3F)s2)CC1 |
| 29 | Nc1nc(NC2CCN(C(=O)C/C=C/c3ccccc3)CC2)sc1C(=O)c1c(F)cccc1F |
| 51 | CC(C)(O)CC(=O)N1CCC(Nc2nc(N)c(C(=O)c3c(F)cccc3F)s2)CC1 |
| 50 | Cc1cccc(/C=C/C(=O)N2CCC(Nc3nc(N)c(C(=O)c4c(F)cccc4F)s3)CC2)c1 |
| -13 | Nc1nc(NC2CCN(C(=O)C3(c4ccccc4)CCCC3)CC2)sc1C(=O)c1c(F)cccc1F |
| 34 | Nc1nc(NC2CCN(C(=O)c3ccoc3)CC2)sc1C(=O)c1c(F)cccc1F |
| 52 | Cc1ccc(OCC(=O)N2CCC(Nc3nc(N)c(C(=O)c4c(F)cccc4F)s3)CC2)cc1C |
| 37 | Nc1nc(NC2CCN(C(=O)CC3Cc4ccccc4C3)CC2)sc1C(=O)c1c(F)cccc1F |
| -45 | CCCCc1ccc(C(=O)N2CCC(Nc3nc(N)c(C(=O)c4c(F)cccc4F)s3)CC2)nc1 |
| 59 | CC1CCC(C(=O)N2CCC(Nc3nc(N)c(C(=O)c4c(F)cccc4F)s3)CC2)CC1 (centres undefined) |
| -1 | Nc1nc(NC2CCN(C(=O)C3(c4ccc(Cl)cc4)CC3)CC2)sc1C(=O)c1c(F)cccc1F |
| 6 | CN(C)c1ccccc1C(=O)N1CCC(Nc2nc(N)c(C(=O)c3c(F)cccc3F)s2)CC1 |

| inhibition [%] | Structure (SMILES) |
| --- | --- |
| 52 | COc1ccc(C(=O)N2CCC(Nc3nc(N)c(C(=O)c4c(F)cccc4F)s3)CC2)c(Cl)c1 |
| 76 | Cc1cc(C)c(/C=C/C(=O)N2CCC(Nc3nc(N)c(C(=O)c4c(F)cccc4F)s3)CC2)cc1C |
| -13 | CCOC(=O)C(=O)N1CCC(Nc2nc(N)c(C(=O)c3c(F)cccc3F)s2)CC1 |
| 62 | Nc1nc(NC2CCN(C(=O)Cc3cccc(Cl)c3)CC2)sc1C(=O)c1c(F)cccc1F |
| 54 | COC1CCC(C(=O)N2CCC(Nc3nc(N)c(C(=O)c4c(F)cccc4F)s3)CC2)CC1 (centres undefined) |
| 80 | Nc1nc(NC2CCN(C(=O)c3cc(F)cc(F)c3)CC2)sc1C(=O)c1c(F)cccc1F |
| 76 | NC(=O)Nc1ccc(C(=O)N2CCC(Nc3nc(N)c(C(=O)c4c(F)cccc4F)s3)CC2)cc1 |
| 36 | CC(=O)N1CCC(C(=O)N2CCC(Nc3nc(N)c(C(=O)c4c(F)cccc4F)s3)CC2)CC1 |
| -31 | Nc1nc(NC2CCN(C(=O)C(=O)c3c[nH]c4ccccc34)CC2)sc1C(=O)c1c(F)cccc1F |
| 51 | COc1ccc(C(=O)N2CCC(Nc3nc(N)c(C(=O)c4c(F)cccc4F)s3)CC2)c(OC)n1 |
| -9 | Nc1nc(NC2CCN(C(=O)c3ccccc3COC(=O)c3ccccc3)CC2)sc1C(=O)c1c(F)cccc1F |
| 32 | CCC(C)(C)C(=O)N1CCC(Nc2nc(N)c(C(=O)c3c(F)cccc3F)s2)CC1 |
| 27 | COc1ccccc1C(O)C(=O)N1CCC(Nc2nc(N)c(C(=O)c3c(F)cccc3F)s2)CC1 (centres undefined) |
| 75 | CN(C)c1ccc(/C=C/C(=O)N2CCC(Nc3nc(N)c(C(=O)c4c(F)cccc4F)s3)CC2)cc1 |
| 36 | Nc1nc(NC2CCN(C(=O)c3cc4cc(F)ccc4[nH]3)CC2)sc1C(=O)c1c(F)cccc1F |
| 51 | Nc1nc(NC2CCN(C(=O)/C=C/c3cccc(F)c3F)CC2)sc1C(=O)c1c(F)cccc1F |
| 27 | Nc1nc(NC2CCN(C(=O)c3cnc4ccccc4c3)CC2)sc1C(=O)c1c(F)cccc1F |
| 58 | Nc1nc(NC2CCN(C(=O)/C=C/C=C/c3ccccc3)CC2)sc1C(=O)c1c(F)cccc1F |
| -9 | Nc1nc(NC2CCN(C(=O)[C@@H]3C[C@H]3c3ccccc3)CC2)sc1C(=O)c1c(F)cccc1F |
| 10 | CC(C)=CC1C(C(=O)N2CCC(Nc3nc(N)c(C(=O)c4c(F)cccc4F)s3)CC2)C1(C)C (centres undefined) |
